Results as given in publication PMC3467217, “A Potent Class of GPR40 Full Agonists Engages the EnteroInsular Axis to Promote Glucose Control in Rodents” (PLoS ONE, 2012).

Columns and labels:
humans = conditions: cited from earlier work
GPR40 [1] = biological target: T1, GPR40 (Homo sapiens, UniProt O14842); assay: Aequorin Ca2+ flux assay in CHO cell line stably expressing GPR40; type: cell-based; conditions: CHO-GPR40 stable cell line; for Emax: compared to natural free fatty acid ligands, read-out: Emax (efficacy)
T1 construct: expressed in transfected cells; host or cells: CHO cell line stably expressing GPR40 and aequorin
T1 sequence (O14842 whole entry): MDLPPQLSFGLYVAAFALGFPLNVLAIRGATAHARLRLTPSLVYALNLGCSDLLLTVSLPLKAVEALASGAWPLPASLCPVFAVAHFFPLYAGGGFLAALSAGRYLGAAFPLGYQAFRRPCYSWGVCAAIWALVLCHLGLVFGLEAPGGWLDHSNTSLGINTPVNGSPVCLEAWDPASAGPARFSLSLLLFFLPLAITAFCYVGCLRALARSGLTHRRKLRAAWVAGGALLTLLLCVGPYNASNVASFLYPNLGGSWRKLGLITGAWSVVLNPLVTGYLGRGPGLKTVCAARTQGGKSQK
Procedure: Since GPR40 agonists with greater intrinsic activity may have improved anti-diabetic properties, we focused our efforts to discover potent synthetic full agonists.
(§1) GPR40 aequorin, plasmid titration, and inositol phosphate assays were performed as described. For aequorin assays, in addition to transient transfection of GPR40 into CHO cells, a CHO cell line stably expressing both GPR40 and aequorin was generated. GLUTag cells were obtained under a license from Dr. Daniel Drucker, University of Toronto. Competition binding experiments were performed using membranes prepared from A9_GPR40 cells. […] Competition binding assays were carried out in 20 mM Hepes pH 7.5, 5 mM MgCl2, 100 mM NaCl and 0.1% (w/v) free fatty acid BSA and bound radioligand was collected on 96-well GF/C filter plates.

GPR40 [2] = biological target: T1, GPR40; assay: Inositol phosphate accumulation assay in A9 cells stably expressing GPR40 (A9_GPR40); type: cell-based; conditions: for agonist character: inositol phosphate accumulation, A9 cells stably expressing GPR40 (figure S1)
Procedure: as §1
(A) Structure of selected GPR40 agonists. (B) GPR40 agonists were tested in parallel in vitro in an inositol phosphate accumulation assay in A9 cells stably expressing GPR40. (TIF) Click here for additional data file.

GPR40 [3] = biological target: T1, GPR40; assay: Competition binding with 3H-AM-1638 on A9_GPR40 membranes; conditions: unlabelled competitor
Procedure: as §1

GPR41 (FFAR3) = biological target: T2, GPR41 (FFAR3) (Homo sapiens, UniProt O14843); assay: GPR41 aequorin assay; type: cell-based; conditions: up to 10 µM
T2 construct: expressed in transfected cells
T2 sequence (O14843 whole entry, species assumed): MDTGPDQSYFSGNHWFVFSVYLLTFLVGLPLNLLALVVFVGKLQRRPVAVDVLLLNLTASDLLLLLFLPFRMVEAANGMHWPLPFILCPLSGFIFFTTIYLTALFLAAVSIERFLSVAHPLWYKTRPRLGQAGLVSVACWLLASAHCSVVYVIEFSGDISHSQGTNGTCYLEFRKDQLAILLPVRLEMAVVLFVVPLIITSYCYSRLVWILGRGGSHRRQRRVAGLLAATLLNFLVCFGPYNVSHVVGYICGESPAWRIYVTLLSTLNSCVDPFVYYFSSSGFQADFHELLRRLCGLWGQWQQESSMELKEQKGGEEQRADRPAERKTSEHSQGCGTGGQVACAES
From the text: (§2) (A) GPR41 (FFAR3) aequorin assay. GPR41 was force coupled to the calcium signaling pathway by co-transfecting the cells with Gqmyri5. (B) GPR43 (FFAR2) aequorin assay. The short chain fatty acid propionate acts as a natural agonist ligand for GPR41 and GPR43. (C) GPR120 aequorin assay. The unsaturated fatty acids α-LNN and DHA act as natural agonist ligands for GPR120. (D) PPAR-gamma luciferase assay using the thiazolidinedione rosiglitazone as a positive control. […] (TIF) Click here for additional data file.

GPR43 (FFAR2) = biological target: T3, GPR43 (FFAR2) (Homo sapiens, UniProt O15552); assay: GPR43 aequorin assay; type: cell-based; conditions: up to 10 µM
T3 construct: expressed in transfected cells
T3 sequence (O15552 whole entry, species assumed): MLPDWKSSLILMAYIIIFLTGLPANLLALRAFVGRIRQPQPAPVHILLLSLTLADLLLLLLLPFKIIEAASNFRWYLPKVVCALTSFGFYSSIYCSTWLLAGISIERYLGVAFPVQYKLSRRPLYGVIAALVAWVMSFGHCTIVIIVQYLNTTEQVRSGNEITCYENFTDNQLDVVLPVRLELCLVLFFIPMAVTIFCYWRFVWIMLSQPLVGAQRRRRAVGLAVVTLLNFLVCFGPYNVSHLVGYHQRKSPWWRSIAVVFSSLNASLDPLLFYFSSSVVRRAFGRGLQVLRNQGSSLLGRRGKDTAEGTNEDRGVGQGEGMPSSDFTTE
From the text: as §2

GPR120 = biological target: T4, GPR120 (Homo sapiens, UniProt Q5NUL3); assay: GPR120 aequorin assay; type: cell-based; conditions: weak activity
T4 construct: expressed in transfected cells
T4 sequence (Q5NUL3 whole entry, species assumed): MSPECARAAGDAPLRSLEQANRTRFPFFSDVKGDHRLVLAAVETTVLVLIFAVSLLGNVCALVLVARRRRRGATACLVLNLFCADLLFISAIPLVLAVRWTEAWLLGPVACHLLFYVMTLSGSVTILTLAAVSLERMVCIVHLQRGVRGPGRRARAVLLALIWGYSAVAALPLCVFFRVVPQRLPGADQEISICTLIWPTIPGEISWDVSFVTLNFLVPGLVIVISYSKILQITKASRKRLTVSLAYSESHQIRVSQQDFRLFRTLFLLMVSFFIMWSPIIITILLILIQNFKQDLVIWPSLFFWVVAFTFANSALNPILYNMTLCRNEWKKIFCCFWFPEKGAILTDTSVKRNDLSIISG
From the text: as §2

PPAR alpha = PPAR alpha (Homo sapiens, UniProt Q07869); assay: PPAR-alpha luciferase reporter assay; type: cell-based; conditions: concentrations up to 10 µM
Sequence of PPAR alpha (Q07869 whole entry, species assumed): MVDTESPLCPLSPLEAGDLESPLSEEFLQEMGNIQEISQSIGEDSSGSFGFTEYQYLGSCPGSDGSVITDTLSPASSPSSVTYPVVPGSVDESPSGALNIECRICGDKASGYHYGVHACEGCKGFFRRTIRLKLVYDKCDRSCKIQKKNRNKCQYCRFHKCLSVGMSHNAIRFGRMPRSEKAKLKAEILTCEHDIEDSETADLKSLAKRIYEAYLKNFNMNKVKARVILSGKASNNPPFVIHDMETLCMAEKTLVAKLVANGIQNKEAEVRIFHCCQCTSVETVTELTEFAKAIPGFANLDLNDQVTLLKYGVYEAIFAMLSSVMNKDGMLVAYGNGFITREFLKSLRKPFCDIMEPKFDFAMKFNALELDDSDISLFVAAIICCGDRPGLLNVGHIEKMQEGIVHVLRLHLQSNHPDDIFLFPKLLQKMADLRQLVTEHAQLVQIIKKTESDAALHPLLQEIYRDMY

PPAR delta = PPAR delta (Homo sapiens, UniProt Q03181); assay: PPAR-delta luciferase reporter assay; type: cell-based; conditions: concentrations up to 10 µM
Sequence of PPAR delta (Q03181 whole entry): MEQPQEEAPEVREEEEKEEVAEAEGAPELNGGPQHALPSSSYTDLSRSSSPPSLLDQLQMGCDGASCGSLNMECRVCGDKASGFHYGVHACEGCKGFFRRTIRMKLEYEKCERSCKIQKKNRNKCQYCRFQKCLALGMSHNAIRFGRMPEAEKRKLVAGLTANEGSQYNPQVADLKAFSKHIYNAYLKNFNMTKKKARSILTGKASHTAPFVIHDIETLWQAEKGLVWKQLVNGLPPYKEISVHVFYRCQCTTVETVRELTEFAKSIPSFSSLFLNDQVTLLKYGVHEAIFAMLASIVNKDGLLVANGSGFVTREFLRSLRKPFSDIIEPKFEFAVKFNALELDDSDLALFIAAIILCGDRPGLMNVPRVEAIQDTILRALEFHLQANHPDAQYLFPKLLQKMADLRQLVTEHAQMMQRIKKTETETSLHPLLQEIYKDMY

PPAR gamma = PPAR gamma (Homo sapiens, UniProt P37231); assay: PPAR-gamma luciferase assay; type: cell-based; conditions: concentrations up to 10 µM
Sequence of PPAR gamma (P37231 whole entry): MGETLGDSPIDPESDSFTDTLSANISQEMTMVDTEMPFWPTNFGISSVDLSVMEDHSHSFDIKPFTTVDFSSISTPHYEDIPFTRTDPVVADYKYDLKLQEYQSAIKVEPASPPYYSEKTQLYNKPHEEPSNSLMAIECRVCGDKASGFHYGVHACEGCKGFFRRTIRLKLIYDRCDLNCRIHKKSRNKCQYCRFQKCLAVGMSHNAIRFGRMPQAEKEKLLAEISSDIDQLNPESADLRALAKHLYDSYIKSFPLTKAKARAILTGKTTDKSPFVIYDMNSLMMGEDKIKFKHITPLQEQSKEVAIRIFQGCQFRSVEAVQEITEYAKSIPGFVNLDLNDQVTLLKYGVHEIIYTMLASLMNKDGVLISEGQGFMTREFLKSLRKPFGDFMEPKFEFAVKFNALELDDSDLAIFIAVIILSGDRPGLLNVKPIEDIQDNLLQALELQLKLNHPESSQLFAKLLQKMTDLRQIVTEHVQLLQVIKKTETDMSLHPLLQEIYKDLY
From the text: as §2

mouse islets [4] = assay: GSIS assay in mouse islets; type: cell-based; conditions: 16.7 mM glucose
Procedure: (§3) Mouse islets were isolated and tested for stimulation of GSIS as described. Human islets were purchased from Prodo labs or were obtained from the National Institutes of Health and Juvenile Diabetes Research Foundation supported Islet Cell Resource Consortium (http://icr.coh.org). Islet inositol phosphate assays were performed on islets cells that had been dispersed with trypsin. 10,000 islet cells were plated/well of a 96-well plate and were loaded with ^3H-myo-inositol (0.5 µCi/well) in RPMI overnight prior to treatment. The next day, response to different stimuli was tested in HBSS containing 10 mM LiCl and 0.1% HSA (w/v) for 1 hour at 37°C. Accumulated ^3H-inositol phosphate was measured after capture to SPA beads. Islet perifusion experiments were performed on mouse islets loaded into a Brandel Suprafusion system. Twenty islets were size-matched and loaded per perifusion chamber. Islets were perifused in KRBH containing, sequentially, 3 mM glucose, then 3 mM glucose containing 10 µM drug, 16.7 mM glucose containing 10 µM drug and finally returned to 3 mM glucose containing 10 µM drug. Insulin was measured using an insulin ELISA kit (Alpco). Fetal rat intestinal cells were isolated from e19-day old fetuses of pregnant Sprague-Dawley rats. Briefly, fetal intestines were isolated and digested in HBSS buffer containing 0.5 mg/ml collagenase (Sigma), 0.5 mg/ml of hyaluronidase (Sigma) and 0.05 mg/ml of deoxyribonuclease I (Roche) for 30 minutes at 37°C. The digestion was quenched using HBSS containing 15% FBS. Fetal rat intestinal cells were washed and cultured overnight in DMEM containing 5% FBS in 96-well plates. To test for secretion of GLP-1 and GIP in response to treatments, we incubated cells for 1 hour with treatments in KRBH buffer containing 0.05% BSA (w/v). GLP-1 and GIP1 secreted into the media was measured using ELISA kits specific for GLP-1 (Linco) or GIP (Millipore).

[5] = tested on: islets isolated from GPR40 knockout mice; assay: GSIS assay with islets from GPR40 knock-out mice; type: cell-based, mouse
Procedure: as §3

human islet cells = assay: Inositol phosphate assay with dispersed human islet cells; type: cell-based
Procedure: as §3, with “Briefly, fetal intestines were isolated and digested in HBSS buffer containing 0.5 mg/ml collagenase (Sigma), 0.5 mg/ml of hyaluronidase (Sigma) and 0.05 mg/ml of deoxyribonuclease I (Roche) for 30 minutes at 37°C. The digestion was quenched using HBSS containing 15% FBS. Fetal rat intestinal cells were washed and cultured overnight in DMEM containing 5% FBS in 96-well plates. To test for secretion of GLP-1 and GIP in response to treatments, we incubated cells for 1 hour with treatments in KRBH buffer containing 0.05% BSA (w/v).” left out

human islets = assay: GSIS assay with human islets; type: cell-based; conditions: 12.5 mM glucose
Procedure: as §3, with “Briefly, fetal intestines were isolated and digested in HBSS buffer containing 0.5 mg/ml collagenase (Sigma), 0.5 mg/ml of hyaluronidase (Sigma) and 0.05 mg/ml of deoxyribonuclease I (Roche) for 30 minutes at 37°C. The digestion was quenched using HBSS containing 15% FBS. Fetal rat intestinal cells were washed and cultured overnight in DMEM containing 5% FBS in 96-well plates. To test for secretion of GLP-1 and GIP in response to treatments, we incubated cells for 1 hour with treatments in KRBH buffer containing 0.05% BSA (w/v).” left out

GLUTag cells = assay: Inositol phosphate accumulation assay in GLUTag enteroendocrine L-cell line; type: cell-based, mouse
Procedure: (§4) Increased GLP-1 and GIP would be expected to have additional benefits in type 2 diabetics. […] We tested for potential effects on incretin secretion in vitro by using cells isolated from fetal rat intestines.
as §1

[6] = tested on: wild type and GPR40 knockout mice; assay: OGTT and GLP-1 secretion in wild type and GPR40 null mice; type: in vivo, mouse; conditions: OGTT, single oral dose
Procedure: (§5) All procedures on animals were approved by the Amgen San Francisco Institutional Animal Care and Use Committee (approved protocols #11–04 and #2007–00106). The Amgen San Francisco vivarium is an AAALAC accredited facility. Animals were housed under a 12-h light, 12-h dark cycle (lights-on 0600 h and lights-off 1800 h) and were allowed ad libidum access to chow and water. The HF/STZ mice were established as previously described. Briefly, C57BL/6j mice (Jackson labs) at 4 weeks of age were fed a high-fat diet (BioServ S1850, 35% fat) for 3-weeks and then injected with 95 mg/kg streptozotocin (Sigma) ip to induce beta cell dysfunction. The animals continued on the same high fat diet for 3–6 additional weeks. Animals were then randomized into treatment groups based on fasting blood glucose and insulin measures. NONcNZO10/LtJ (RCS10) male mice (Jackson labs) were used at 12-weeks of age and randomized for treatment based on fasting glucose levels. For OGTT experiments, drugs were formulated in 1% HPMC, 10% HPbCD, 1% Tween-80 and dosed via oral gavage. Glucose was administered at 2 g/kg 1-hour post drug dose by oral gavage.
(§6) For all glucose tolerance tests, glucose and insulin measurements were taken from tail vein samples at various time-points. Blood glucose values were measured on an Accu-Chek glucometer (Roche Diagnostics), while insulin levels were determined using an ELISA (Alpco).

mouse islets [7] = assay: Mouse islet perifusion assay; type: cell-based; conditions: 10 µM compound
Procedure: as §3

[8] = tested on: fetal rat intestinal cells; assay: GLP-1 secretion assay with fetal rat intestinal cells; type: cell-based; conditions: 1 hour
From the text: as §4
Mouse islets were isolated and tested for stimulation of GSIS as described. Human islets were purchased from Prodo labs or were obtained from the National Institutes of Health and Juvenile Diabetes Research Foundation supported Islet Cell Resource Consortium (http://icr.coh.org). Islet inositol phosphate assays were performed on islets cells that had been dispersed with trypsin. 10,000 islet cells were plated/well of a 96-well plate and were loaded with ^3H-myo-inositol (0.5 µCi/well) in RPMI overnight prior to treatment. The next day, response to different stimuli was tested in HBSS containing 10 mM LiCl and 0.1% HSA (w/v) for 1 hour at 37°C. Accumulated ^3H-inositol phosphate was measured after capture to SPA beads. Islet perifusion experiments were performed on mouse islets loaded into a Brandel Suprafusion system. Twenty islets were size-matched and loaded per perifusion chamber. […] Insulin was measured using an insulin ELISA kit (Alpco). […] GLP-1 and GIP1 secreted into the media was measured using ELISA kits specific for GLP-1 (Linco) or GIP (Millipore).

HF/STZ mice [9] = assay: OGTT in high-fat fed, streptozotocin-treated (HF/STZ) type 2 diabetic mice; type: in vivo, mouse
Procedure: as §5, §6

[10] = Unbound plasma drug concentration in HF/STZ mice; type: in vivo; conditions: C57BL/6j, mouse, 100 mg/kg oral, 1-hour post drug administration, by MS, read-out: free drug level in plasma
mouse GPR40 = mouse GPR40 (Mus musculus, UniProt Q76JU9); assay: Mouse GPR40 inositol phosphate accumulation assay; type: cell-based
Sequence of mouse GPR40 (Q76JU9 whole entry): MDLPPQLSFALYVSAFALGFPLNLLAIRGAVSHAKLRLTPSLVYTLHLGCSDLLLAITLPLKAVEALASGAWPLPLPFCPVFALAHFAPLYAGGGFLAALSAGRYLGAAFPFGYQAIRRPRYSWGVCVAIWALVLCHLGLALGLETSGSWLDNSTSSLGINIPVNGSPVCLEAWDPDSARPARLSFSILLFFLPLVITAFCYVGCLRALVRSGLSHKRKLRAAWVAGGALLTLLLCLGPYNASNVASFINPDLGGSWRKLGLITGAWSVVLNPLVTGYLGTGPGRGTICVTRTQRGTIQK
Procedure: as §1

HF/STZ mice [11] = assay: Single oral dose without glucose challenge in HF/STZ mice: GLP-1, insulin, glucose, GIP; type: in vivo, mouse
Procedure: The increase in insulin secretion by GPR40 agonists is due to direct stimulation of GPR40 receptors on pancreatic β-cells, but may also be derived from stimulation of the gut peptides GLP-1 and GIP, which subsequently act on the GLP-1 and GIP G protein-coupled receptors found on pancreatic β-cells. […] No glucose challenge was performed in order to isolate the effects of the compounds alone.
as §5

Zucker fatty rats = conditions: 21-day, qd dosing; cited from earlier work

Cc1cc(OCCCS(C)(=O)=O)cc(C)c1-c1cccc(COc2ccc3c(c2)OC[C@H]3CC(=O)O)c1 [TAK-875]
glycemic parameters in type 2 diabetic subjects (humans): improve glycemic parameters
incretin levels in type 2 diabetic patients (humans): not associated with a change in incretin levels

CC[C@H](CC(=O)O)c1cccc(OCc2ccc(-c3cc(OC)ccc3F)c([C@@H]3CCCC3(C)C)c2)c1F [AM-6226]
EC50 (GPR40 [1]): 130 ± 30 nM
Emax (GPR40 [1]): 105%
intrinsic activity, fold greater than AMG 837 (GPR40 [2]; inositol phosphate assay): ~2 fold
EC50 (GPR40 [2]; inositol phosphate assay, 1-hour accumulation, read-out: Half-maximal potency): 5.7 ± 0.8 nM
displacement of 3H-AM-1638 (GPR40 [3]): displaced ^3H-AM-1638
activation of GPR41 (FFAR3) (GPR41 (FFAR3)): did not activate
activation of GPR43 (FFAR2) (GPR43 (FFAR2)): did not activate
EC50 (GPR120): ~5 µM
activation of PPAR alpha (PPAR alpha): did not activate
activation of PPAR delta (PPAR delta): did not activate
activation of PPAR gamma (PPAR gamma): did not activate
increase of insulin secretion, fold from that of AMG 837 (mouse islets [4]): 3–4 fold
EC50 (mouse islets [4]; read-out: EC50 for potentiation of insulin secretion): 940 ± 600 nM
GSIS response of GPR40 knockout islets [5]: did not respond
IP production efficacy, fold greater than AMG 837 (human islet cells): 8–10 ×
stimulation of insulin secretion compared with AMG 837 (human islets): significantly greater
inositol phosphate accumulation, fold increase compared to AMG 837 (GLUTag cells): 3–4 fold

Exendin-4: exerts its effects via GLP-1R [reference compound]
GSIS response of GPR40 knockout islets [5]: did respond

N[C@@H](CC(=O)N1CCn2c(nnc2C(F)(F)F)C1)Cc1cc(F)c(F)cc1F [sitagliptin, reference compound]
improvement in pre- and post-challenge glucose levels ([6]; GPR40 knockout mice): maintained in both
improvement in pre- and post-challenge glucose levels ([6]; wild type mice): maintained in both

C/C=C/[C@H](CC(=O)O)c1ccc(OCc2ccc(-c3cc(OC)ccc3F)cc2)cc1 [AM-8182]
EC50 (GPR40 [1]): 2400 ± 100 nM
Emax (GPR40 [1]): 106%

O=C(O)CCc1ccc(NCc2cccc(Oc3ccccc3)c2)cc1 [GW-9508, reference compound]
agonist character (GPR40 [2]): partial agonists

Cc1ccccc1C#Cc1ccc(CCC(=O)O)cc1 [TUG-424, reference compound]
agonist character (GPR40 [2]): partial agonists

CC#CC(CC(=O)O)c1ccc(OCc2ccc(-c3cccc(OC)c3)cc2)cc1 (racemic) [(±)-AM-8596]
EC50 (GPR40 [1]): 1500 ± 170 nM
Emax (GPR40 [1]): 98%

CC#C[C@@H](CC(=O)O)c1ccc(OCc2cccc(-c3ccc(C(F)(F)F)cc3)c2)cc1 [AMG 837, reference compound]
insulin stimulation compared to vehicle control (mouse islets [7]; 3 mM glucose): neither AMG 837 nor AM-1638 stimulated insulin
insulin secretion (mouse islets [7]; 16.7 mM glucose): increased both first and second phase insulin secretion
GLP-1 release in vitro [8]: could stimulate GLP-1 release
Glucose AUC improvement (HF/STZ mice [9]; OGTT, 100 mg/kg oral, 1 hour before glucose): 19%
doses at which maximally efficacious (HF/STZ mice [9]; preliminary experiments): ≥ 60 mg/kg
concentration at 1 h [10]: 826 ± 66 nM
EC50 (mouse GPR40): 11 ± 0.05 nM
blood glucose levels (HF/STZ mice [11]; HF/STZ mice, single oral dose, no glucose challenge): stabilized blood glucose levels
GLP-1 or GIP levels in vivo (HF/STZ mice [11]; oral gavage, doses as high as 100 mg/kg): does not substantially increase
glucose and insulin levels in healthy volunteers (humans; phase 1 clinical trials, ref Amgen, data on file): did not lower glucose or increase insulin levels
anti-diabetic effects after repeated dosing (Zucker fatty rats): sustained anti-diabetic effects
